Measured values from BindingDB's records for doi:10.1074/jbc.M113.537704 (Icahn School Of Medicine At Mount Sinai, 2014).

Columns and labels:
[1] = target: T1, Endothelin-converting enzyme 1 (Homo sapiens, UniProt P42892); experiment: Enzyme Activity Assay
T1 sequence (P42892 whole entry): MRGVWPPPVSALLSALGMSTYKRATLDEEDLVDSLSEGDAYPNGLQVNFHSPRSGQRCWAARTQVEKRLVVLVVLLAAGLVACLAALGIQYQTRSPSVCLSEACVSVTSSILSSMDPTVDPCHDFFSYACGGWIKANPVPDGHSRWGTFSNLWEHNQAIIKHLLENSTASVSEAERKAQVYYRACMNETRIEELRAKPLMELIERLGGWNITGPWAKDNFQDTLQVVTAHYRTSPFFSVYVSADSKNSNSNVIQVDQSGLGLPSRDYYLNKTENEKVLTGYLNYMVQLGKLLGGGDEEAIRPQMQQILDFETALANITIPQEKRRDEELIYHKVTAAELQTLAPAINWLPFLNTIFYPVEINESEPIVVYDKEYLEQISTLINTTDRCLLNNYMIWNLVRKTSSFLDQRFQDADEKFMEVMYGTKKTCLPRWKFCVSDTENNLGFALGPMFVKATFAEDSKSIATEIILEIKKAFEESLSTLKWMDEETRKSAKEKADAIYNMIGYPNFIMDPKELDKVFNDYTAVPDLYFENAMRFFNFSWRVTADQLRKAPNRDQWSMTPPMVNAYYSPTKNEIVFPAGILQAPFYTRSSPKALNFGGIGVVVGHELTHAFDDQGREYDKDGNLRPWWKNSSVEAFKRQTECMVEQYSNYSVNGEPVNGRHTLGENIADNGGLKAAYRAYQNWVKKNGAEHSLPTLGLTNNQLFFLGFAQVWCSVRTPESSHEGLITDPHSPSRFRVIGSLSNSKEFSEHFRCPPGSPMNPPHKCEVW
Procedure: (§1) Recombinant ECE2 (32.5 ng) with a specific activity of 12 pmol/min/μg protein was generated as described previously. Secreted soluble recombinant ECE1 (30 ng) with a specific activity of 750 pmol/min/μg protein was generated and purified using a protocol similar to that used for ECE2. Solubilized midbrain membranes (10 μg) from wildtype or ECE2 knock-out mice were prepared as described. Enzymatic activity, in the absence or presence of the ECE2 inhibitor S136492 or the ECE1 inhibitor SM19712, was assayed using the synthetic quenched fluorescent substrate McaBk2 (10 μM) at 37 °C with either 0.2 M sodium acetate buffer, pH 5.5, or 50 mM Tris-Cl buffer, pH 7.4, as described previously [Gagnidze et al., J. Med. Chem., 51:3378-3387; Ouimet et al., J. Biol. Chem., 285:34390-34400].

[2] = target: EEF1AKMT4-ECE2 readthrough transcript protein (Homo sapiens, UniProt P0DPD8); experiment: Enzyme Activity Assay; conditions: pH 5.5
Sequence of EEF1AKMT4-ECE2 readthrough transcript protein (P0DPD8 whole entry): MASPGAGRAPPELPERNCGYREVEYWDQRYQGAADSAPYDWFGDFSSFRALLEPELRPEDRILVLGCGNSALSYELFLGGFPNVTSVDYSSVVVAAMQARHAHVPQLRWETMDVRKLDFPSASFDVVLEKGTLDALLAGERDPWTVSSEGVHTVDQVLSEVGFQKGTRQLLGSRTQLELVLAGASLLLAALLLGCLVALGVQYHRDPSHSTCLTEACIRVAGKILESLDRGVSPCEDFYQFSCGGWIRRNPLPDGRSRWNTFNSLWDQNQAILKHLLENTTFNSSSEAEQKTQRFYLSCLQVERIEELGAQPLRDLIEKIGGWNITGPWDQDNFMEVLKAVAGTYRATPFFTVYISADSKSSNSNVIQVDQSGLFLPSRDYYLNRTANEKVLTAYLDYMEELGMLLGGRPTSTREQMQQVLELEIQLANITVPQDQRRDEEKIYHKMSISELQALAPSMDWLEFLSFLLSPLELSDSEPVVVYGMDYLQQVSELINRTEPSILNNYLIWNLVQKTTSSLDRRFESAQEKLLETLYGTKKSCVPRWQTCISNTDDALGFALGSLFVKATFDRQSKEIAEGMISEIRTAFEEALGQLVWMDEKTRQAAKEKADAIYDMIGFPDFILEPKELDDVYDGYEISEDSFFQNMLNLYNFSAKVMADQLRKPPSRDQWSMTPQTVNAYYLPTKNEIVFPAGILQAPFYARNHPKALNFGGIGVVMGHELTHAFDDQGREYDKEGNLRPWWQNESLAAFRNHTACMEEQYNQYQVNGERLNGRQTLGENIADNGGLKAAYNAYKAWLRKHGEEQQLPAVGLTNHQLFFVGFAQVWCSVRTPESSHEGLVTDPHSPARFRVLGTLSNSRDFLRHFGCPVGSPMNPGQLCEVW
Procedure: as §1

| IC50 ([1]; pH 5.5) [µM] | IC50 ([1]; pH 7.4) [µM] | IC50 [2] [µM] | Compound |
| --- | --- | --- | --- |
| > 100 | > 100 | 1.6 | Oc1ccccc1/C=C\c1ccc2ccccc2n1 [2-(2-(quinolin-2-yl)vinyl)phenol] |
| > 100 | 1.1 | 0.005 | Cc1[nH]nc(NC(=O)NS(=O)(=O)c2ccc(Cl)cc2)c1C#N [SM19712] |
